Data published in patent US20100022637A1, “IDENTIFICATION OF ANTI-CANCER COMPOUNDS AND COMPOUNDS FOR TREATING HUNTINGTON'S DISEASE AND METHODS OF TREATMENT THEREOF” (THE TRUSTEES OF COLUMBIA UNIVERSITY IN THE CITY OF NEW YORK, priority 2005, published 2010).
In brackets after ≈: the same amount, converted by molar mass.

Experiments:
RKO-E6 cells [1] = assay: Flow cytometry cell cycle distribution, RKO-E6; type: cell-based, human; settings: 24 h, propidium iodide
Procedure: RKO, RKO-E6 or HeLa cells were seeded in 20-cm dishes in 10 ml of growth medium. Cells were allowed to adhere and then treated with the selected compounds for 24 h. The treated cells were collected, washed 2× with PBS and counted. The cell pellet was re-suspended in 500 μl of ice cold PBS and 2-5 ml of cold 70% ethanol (−20° C.) were added. Cells were fixed for 1 h or overnight. 5-10 million cells were placed into a 15-ml conical tube and centrifuged at 1000 g. Cells were washed 2× with 1% calf serum in PBS. Cells were resuspended in 800 μl of 1% calf serum in PBS and 100 μl of Rnase (1 mg/ml) and 100 μl of propidium iodide (400 μg/ml) added. Cells were incubated at 37° C. for 30 min and then analyzed on flow cytometer.

p53 = assay: Western blot of p53 (p21, MDM2) levels; type: cell-based, human; settings: RKO-E6 cells; in words
Procedure: Protein content was quantified using a BioRad protein assay reagent (BioRad, cat #500-0006). Equal amounts of protein were resolved on SDS-polyacrylamide gels. Proteins were transferred onto a PVDF membrane, blocked with 5% milk, and incubated with the appropriate primary and secondary antibodies. […] To test for equivalent loading in each lane, blots were stripped, blocked and probed with an anti-eIF-4E antibody.

RKO-E6 cells [2] = assay: Alamar Blue viability assay, RKO-E6; type: cell-based, human
Procedure: RKO colon carcinoma, human (ATCC, order # CRL-2577), RKO-E6 colon carcinoma transfected with HPV E6 inserted in pCMV.3 (ATCC, order # CRL-2578) were grown in MEM with 2 mM L-glutamine and Earle's BBS adjusted to contain 1.5 g/L NaHCO3, 0.1 mM non-essential amino acids and 1.0 mM sodium pyruvate, and supplemented with 10% fetal bovine serum, penicillin and streptomycin (pen/strep). Both cell lines were incubated at 37° C. in a humidified incubator containing 5% CO2.
The Alamar Blue assay incorporates a fluorimetric/colorimetric growth indicator that changes color in the response to chemical reduction by viable cells (Nociari 1998). Cells were seeded at a density of 3,000 cells (57 μl) per well in a 384-well black, clear-bottom plates using a syringe bulk dispenser (Zymark Sciclone ALH). Three microliters were removed from a compound daughter plate using a 384 fixed cannula head and added to the assay plate, making the final concentration 4 μg/ml. The plates were incubated for 24 h at 37° C. 10 μl of 40% Alamar Blue (Biosource Int., cat #DAL1100) solution in media was added to each well (1:10 dilution). The assay plates were incubated for 16h. Fluorescence intensity was determined using a Packard Fusion platereader with a 535 nm excitation filter and a 590 nm emission filter. The average fluorescence for the whole plate was used as a positive control. Average percentage inhibition for each well was determined using our freely available SLIMS software (Kelley et al., 2004).
The daughter plates for the 2-fold dilution series were prepared with a Zymark Sciclone ALH by diluting the replica daughter plates to obtain compound concentrations from 8 μg/ml-0.008 μg/ml (columns 8-18). Columns 1-7 were used as untreated control. RKO-E6 cells were seeded at the density of 3,000 per well in 55 μl, and 5 μl were added from the daughter plate. RKO cells were seeded at the density of 2,000 per well in 55 μl, and 5 μl were added from the daughter plate. The assay was incubated for 24 h at 37° C. 10% Alamar Blue was added to each well and the assay was incubated for 16 h (see above). Compounds for retesting were purchased from the manufacturers or from Sigma-Aldrich (see above). Stocks were prepared in DMSO at 4 mg/ml.
Each cell line (RKO, RKO-E6, HeLa and TC32) was treated with a dose combination matrix of doxorubicin and a selected hit compound. Each treatment was done in a triplicate in 384-well format. The average percent inhibition of cell proliferation, measured with Alamar Blue, was determined using the following formula: […]

N548 mutant cells = assay: in vitro; settings: for selectivity profile of cell death rescue in panel of htt expressing cell lines: N63, N548, FL htt cell lines, in words; for maximal fold induction: 72 h, read-out: N548 Mut: Max, maximum rescue expressed as fold over DMSO treated N548 mutant cells; for EC50: read-out: EC50 based on activity in N548 mutant cells
Procedure: Embryonic rat striatal neurons were conditionally immortalized by stably transfecting a temperature-sensitive SV40 large T-antigen (T-ag) to generate the ST14A cell line. ST14A cells proliferate at the permissive temperature (33° C.), but stop dividing at 39° C., as a result of T-ag degradation. […] As htt protein context modulates polyQ toxicity, testing these different length htt proteins could provide insight into the basis for context dependence.
ST14A Assay System: Calcein acetoxylmethyl ester (AM) (Molecular Probes, Eugene, Oreg.) is a non-fluorescent, membrane-permeable compound that is cleaved by intracellular esterases, which subsequently forms the anionic, fluorescent compound, calcein, that cannot permeate the cell membrane. […] A fluorescence viability assay, that is based on conversion of a non-fluorescent substrate (calcein AM) to a fluorescent product by nonspecific esterases in live cells, was employed to monitor cell death in wild type (wt) ST14A-Htt and mut ST14A-Htt cell lines. Cell death is indicated by a decrease in fluorescence. […] 3 μl of each compound was transferred from daughter plates to triplicate assay plates for a final assay concentration of 4 μg/ml in 0.1% DMSO (10 μM for NINDS compounds). Cells were incubated at 33° C. for 3 h to enhance attachment and then shifted to 39° C. (with 5% CO2). After 3 days (d), cells were washed 10 times with phosphate buffered saline (PBS) leaving 20 μl residual PBS per well, and 20 μl of 2 μg/ml calcein AM (Molecular probes) in PBS was added per well. […] The fluorescence intensity in each well was normalized to the median of each plate. The median normalized fluorescence of each triplicate assay wells was determined. A well with more than 50% increase in intensity above the median signal intensity was considered a “hit.”
Assay Development: An assay was developed for detecting mutant htt-induced cell death in ST14A cells in a 384-well plate format. A calcein AM-based method was used to detect cell viability, and optimized the cell number and time course for this method. […] A cell number titration was performed to determine the cell density at which calcein fluorescence was not saturated and the coefficient of variation (CV) was low (FIG. 14A-B). A low CV is critical for a high-throughput assay as it decreases noise and enhances sensitivity. […] Next, the kinetics of the fluorescence signal were determined.
Next, the serum concentrations that induce cell death in these cells were determined. Cells were seeded in decreasing serum (IFS) concentrations (5 to 0%), and cell viability was assayed after 3 d using the calcein AM assay (FIG. 14E).
A Z′ value of greater than 0 is required for a usable assay, with a maximum value of 1.0 for an ideal assay. For the assay, calcein fluorescence was used on the day of seeding to represent 100% rescue. The difference in calcein fluorescence signal on the day of seeding and after different number of days under serum deprivation was determined and used to calculate the Z′ factor. […] About 47,000 compounds were assayed in a 384-well plate format in triplicate to enhance the reliability of the primary screen.

[3] = system: PC12 expressing Q103 exon 1 htt; assay: PC12 HD model, Alamar Blue viability; type: cell-based; settings: for EC50: Rattus norvegicus, PC-12, unit inferred; for PC12 rescue: percent increase in viability in compound treated cells above DMSO treated: — = no activity in the assay (footnote n.a.)
Procedure: For enhanced stability the repeat portion consists of alternating CAG/CAA repeats. […] Mutant (mut) htt was induced by the ecdysone receptor agonist, tebufenozide.
For the PC12 assay, 7500 cells/well were plated in 384-well plates in 57 μl of PC12 medium with tebufenozide (1 μM). Compounds (3 μl) from daughter plates were added to the cells and incubated at 37° C. After 48 h, 20 μl of 40% Alamar Blue (Biosource, CA) in PC12 media was added per well and cells incubated for 12 h at 37° C. […] Fluorescence intensity was determined using a Packard Fusion plate reader with an excitation filter centered on 535 nm and an emission filter centered on 590 nm. Average percentage inhibition at each concentration was calculated.

[4] = system: ASH neurons in C. elegans HD model (pqe-1; Htn-Q150); assay: Neuronal survival assay, worm HD model; type: in vivo; settings: 2 d after treatment, revertin-2 0.8 mg/ml, revertin-1a 1 mg/ml, p<0.02
Procedure: One hundred synchronized L1 worms (pqe-1; Htn-Q150) (Faber P., et al, Proc Natl Acad Sci 99: 17131-6; Wood W., Cold Spring Harbor Laboratory, NY) were added to 5 wells (20 worms/well). Each well contained 50 μl food suspension (6.6 O.D.) pre-mixed with compound or DMSO in a 96-well plate. Worms were incubated for 2 d at 15° C., washed in S-media, immobilized with 5 mM sodium azide on a microscopic glass slide and GFP fluorescence was examined using an Axoplan2 fluorescence microscope (ex 485/em 535 nm). Live (GFP positive) Anterior Sensory Horn (ASH) neurons were counted in at least 50 worms (100 neurons). Data were subjected to a two-tailed Student t-test.
Worm HD Model. A C. elegans model of HD was optimized for testing compounds. In this model, larval ASH neurons that express mutant htt in a poly Q enhancer-1 mutant background, die over 2-3 days after hatching (Faber P, et al, Proc Natl Acad Sci USA 2002, 99: 17131-6). Neuronal death was monitored by loss of GFP expression in ASH neurons. Since the effective concentration of compounds in worms can vary widely from those in cell culture, concentrations to test in worms were based on an assay (FIG. 19). The effective concentrations in worms for all compounds were determined and tested for rescue of neuronal cell death. […] Thus, the ST14A cell culture model can be used to identify compounds that are active in in vivo models of HD. […] Compounds in this series were active in both the worm and PC12 HD models (FIG. 18B-C). The revertin-1 series has certain features making it an attractive candidate for lead development including different analogues that are active, a low molecular weight (˜400) making it likely that it can cross the blood brain barrier; furthermore, it is synthetically tractable.

[5] = system: microtubules in N548 mutant cells; assay: β-tubulin indirect immunofluorescence; type: cell-based, rat; settings: colchicine 400 nM, revertin-22 4 μg/ml, 8 h
Procedure: Cells were grown on glass coverslips in 10% IFS-containing media, treated with compounds and fixed in acetone/methanol (1:1 vol/vol). β-tubulin was detected using a mouse monoclonal antibody (clone TUB2.1, Sigma-Aldrich) followed by a rhodamine-conjugated goat anti-mouse antibody (Jackson Laboratory; Bar Harbor, Me.). Cells were viewed under a fluorescent microscope (ex 530/em 595 nm).

EC50 (N548 mutant cells; Rattus norvegicus) | Compound | p53, p21, MDM2 levels (p53) | selectivity profile of cell death rescue in panel of htt expressing cell lines (N548 mutant cells) | maximal fold induction (N548 mutant cells; Rattus norvegicus) | microtubule disruption [5] | further results
 | CC(C)(C)CC(C)(C)c1ccc(OCCOCC[N+](C)(C)Cc2ccccc2)cc1 [benzethonium chloride] | did not upregulate p53, p21, or caspase 3 |  |  |  | cell cycle effect in RKO-E6 cells (RKO-E6 cells [1]): did not induce cell cycle arrest
 | COc1cccc2c1C(=O)c1c(O)c3c(c(O)c1C2=O)C[C@@](O)(C(=O)CO)C[C@@H]3O[C@H]1C[C@H](N)[C@H](O)[C@H](C)O1 [doxorubicin] | caused p53 to accumulate |  |  |  | resistance of RKO-E6 cells compared to RKO cells (RKO-E6 cells [2]): two-fold to four-fold more resistant; inhibition at 0.5 µg/mL (RKO-E6 cells [2]; Homo sapiens, RKOE6, 0.5 μg/ml alone, 24 h, read-out: growth inhibition by drug alone): 20%
4 mg/L | CCCc1cc(OC(=O)c2ccccc2F)n(-c2cccc(F)c2)n1 [revertin-1a] |  | selectively rescued cell death in all mutant htt-expressing cell lines | 2.5 |  | EC50 [3]: 50 mg/L (≈ 146 µM); PC12 rescue: percent increase in viability in compound treated cells above DMSO treated [3]: 21%; ASH neuronal cell survival [4]: enhance ASH neuronal cell survival
1 mg/L | COc1cc2c(cc1OC)C(C)N(C(=O)NCc1ccccc1)CC2 (centres unmarked) [revertin-22] |  | shared the selectivity profile with MTIs | 2.5 | depolymerize microtubules | 
2 mg/L | CC1CN(C(C)c2nc3ccccc3c(=O)n2-c2ccc(F)cc2)CCC1C(=O)C1CC1 (centres unmarked) [revertin-23] |  | shared the selectivity profile with MTIs | 2.5 | disrupt microtubules | 
 | Colchicine [reference compound] |  | rescued cell death in three htt expressing cell lines |  | depolymerize microtubules | N548 Mut: Max, maximum rescue expressed as fold over DMSO treated N548 mutant cells (N548 mutant cells; 0.5% IFS, 39° C., 3 d): 2.5 fold; EC50 (N548 mutant cells): 0.04 µM
 | benzalkonium chloride | did not upregulate p53, p21, or caspase 3 |  |  |  | cell cycle effect in RKO-E6 cells (RKO-E6 cells [1]): did not induce cell cycle arrest; effect on doxorubicin's lethality in RKO-E6 cells (RKO-E6 cells [2]; co-treatment with 0.5 μg/ml doxorubicin, 24 h, in words): selectively increased doxorubicin's lethality; effect on camptothecin's lethality (RKO-E6 cells [2]; co-treatment with camptothecin, in words): did not synergize with camptothecin; induction of apoptosis (RKO-E6 cells [2]; in the absence of doxorubicin): did not induce apoptosis

Compound | EC50 (N548 mutant cells; Rattus norvegicus) | p53, p21, MDM2 levels (p53) | selectivity profile of cell death rescue in panel of htt expressing cell lines (N548 mutant cells) | maximal fold induction (N548 mutant cells; Rattus norvegicus) | microtubule disruption [5] | further results
COc1c2c(cc3c1C(CC(=O)/C=C/c1ccco1)[N+](C)(C)CC3)OCO2 (centres unmarked) [revertin-2] | 3 mg/L |  | protective in all three mutant htt versions | 4 |  | EC50 [3]: 13 mg/L; PC12 rescue: percent increase in viability in compound treated cells above DMSO treated [3]: 34%; ASH neuronal cell survival [4]: enhance ASH neuronal cell survival; ASH neuronal cell survival ([4]; listed as rev-2): rescued ASH neuronal cell death
